In patent EP0184331A2 (priority 1984, dated 1986):
Like-named read-outs stand apart in the source and are kept apart here.

Key:
Graffi virus = conditions: cited from earlier work
[1] = test system: leukemic cells obtained by infection of mice with Graffi's leukemia virus; conditions: cited from earlier work
[2] = test system: Western equine encephalitis virus (WEE, an RNA virus); conditions: cited from earlier work
Herpes virus = conditions: cited from earlier work; for photoinactivation: in 0.9 minutes, 10 ug/ml, 1.2 mW/cm^2 long-wave ultraviolet light
[3] = test system: reovirus (a double-stranded RNA virus); conditions: cited from earlier work
[4] = test system: Vesicular stomatitis virus (VSV); conditions: cited from earlier work; for effectiveness in photoinactivation compared with TMP: 0.7 mW/cm^2 long-wave UV light; for light dose response in the inactivation of VSV: 20-30 µg/ml
[5] = test system: vesicular stomatitis virus; conditions: 9 mW/cm^2 long-wave ultraviolet light; sufficient for inactivation; cited from earlier work
[6] = test system: vesicular stomatitis virus; conditions: approximately 5 minutes irradiation at 9 mW/cm^2, 8.2 µg/ml AMT; cited from earlier work
influenza virus = conditions: cited from earlier work
[7] = test system: cell-free influenza virus; conditions: 1.2 mW/cm^2, cited from earlier work
[8] = test system: herpes simplex virus (a DNA virus); conditions: cited from earlier work
[9] = test system: Intracellular influenza virus; conditions: 10 µg/ml of AMT, 1.2 mW/cm^2; cited from earlier work
Moloney sarcoma virus = conditions: cited from earlier work
[10] = test system: tobacco mosaic virus (TMV); conditions: 100 mW/cm^2 long-wave ultraviolet light; AMT and HMT indistinguishable; cited from earlier work
Rous sarcoma virus = conditions: cited from earlier work
[11] = cited from earlier work
canine hepatitis virus = conditions: cited from earlier work
HTLV-III = assay type: cell-based, Human Tumor Leukemia Virus (HTLV) III
pseudorabies = conditions: cited from earlier work
NewCastle disease virus = conditions: cited from earlier work
Teschen disease virus = conditions: cited from earlier work
fowl pox virus = conditions: cited from earlier work
[12] = test system: foot-and-mouth disease virus; conditions: cited from earlier work
[13] = 30 minutes at 11.5 mW/cm^2 ultraviolet light (365 mm), 10 µg/ml
[14] = 30 minutes at 11.5 mW/cm^2 ultraviolet light, 10 µg/ml
[15] = at higher psoralen derivative concentrations
[16] = on a molar basis, within TMP solubility range

Question: With Cc1coc2c(C)c3oc(=O)cc(C)c3cc12 [4,4',8-trimethylpsoralen] as the compound, how does the “properties of the [intracellular] Graffi virus” value (“properties” below) (Graffi virus; [13]) read?
Answer: remained unchanged

Question: What about the “effect on leukemic cells (ability to replicate or induce leukemia in adult mice)” value (from here on “effect on leukemic cells”) [1, 14] of the same compound?
Answer: killed the cells

Question: With Cc1c2occc2cc2ccc(=O)oc12 [8-methyl-psoralen] as the compound, how does the “properties” value (Graffi virus; [13]) read?
Answer: remained unchanged

Question: And the “effect on leukemic cells” value [1, 14]?
Answer: killed the cells

Question: Which inactivation ([2]; approximately 5 minutes of irradiation at 1.9 mW/cm^2, 10 µg/ml AMT) does the source give for Cc1oc2c(C)c3oc(=O)cc(C)c3cc2c1CN [AMT, 4'-aminomethyl 4,5',8-trimethyl-psoralen] here?
Answer: 10^8 -fold

Question: And the “inactivation rates compared with TMP” value [2, 15]?
Answer: superior inactivation rates

Question: And the “effectiveness compared with HMT” value (Herpes virus; at lower concentrations of the psoralen derivatives, 1.2 mW/cm^2)?
Answer: always more effective than an equal amount of HMT

Question: And the photoinactivation (Herpes virus)?
Answer: 10^4 -fold

Question: And the reduction of infectivity ([3]; 15 minutes irradiation at 9 mW/cm^2, AMT 2.8 x 10^-4 M = 82 ug/ml)?
Answer: > 10^4 -fold

Question: And the “effectiveness in photoinactivation compared with TMP” value [4]?
Answer: a thousand times more effective than TMP

Question: What about the “photoinactivation of VSV, comparison of derivatives” value ([4]; 2-3 µg/ml, 0.7 mW/cm^2) of the same compound?
Answer: superior to HMT and MMT

Question: And the “light dose response in the inactivation of VSV” value ([4]; 0.7 mW/cm^2)?
Answer: equivalent with respect to light dose response

Question: And the “photoreaction with viral RNA” value [5]?
Answer: photoreact only with a single base (cytosine)

Question: And the “reduction of viral RNA polymerase activity” value [6]?
Answer: 100 -fold

Question: What about the “reduction of viral RNA polymerase activity” value (influenza virus; approximately 5 minutes irradiation at 9 mW/cm^2, 8.2 µg/ml AMT) of the same compound?
Answer: 100 -fold

Question: And the “rate of inactivation compared with equivalent amounts of HMT” value ([7]; at all psoralen concentrations)?
Answer: more rapidly inactivated

Question: And the inactivation ([7]; in 1 minute, 10 µg/ml of AMT)?
Answer: 10 -fold

Question: What about the “inactivation rates compared with TMP” value [8, 15] of the same compound?
Answer: superior inactivation rates

Question: What about the “time required for a 10^7-fold inactivation” value [9] of the same compound?
Answer: 4 minutes

Question: What about the inactivation (Moloney sarcoma virus) of the same compound?
Answer: 10 -fold

Question: And the “effect on translational activity compared with TMP” value [10]?
Answer: slightly greater than the effects of TMP

Question: What does the source list for Cc1oc2c(C)c3oc(=O)cc(C)c3cc2c1CO [HMT, 4'-hydroxymethyl 4,5',8-trimethyl-psoralen]?
Answer: photoinactivation (Herpes virus): 10^4 -fold; reduction of infectivity ([3]; 20 minutes of irradiation at 9 mW/cm^2, HMT 2.8 x 10^-4 M = 72 µg/ml): 5 -fold; effectiveness in photoinactivation compared with TMP [4]: a thousand times more effective than TMP; light dose response in the inactivation of VSV ([4]; 0.7 mW/cm^2): equivalent with respect to light dose response; less effective than AMT in the photoinactivation of influenza virus (influenza virus; same conditions as AMT (9 mW/cm^2)): about 10 -fold; inactivation (Rous sarcoma virus): 10^4 -fold; effect on translational activity compared with TMP [10]: slightly greater than the effects of TMP

Question: For COCc1c(C)oc2c(C)c3oc(=O)cc(C)c3cc12 [MMT, 4'-methoxymethyl 4,5',8-trimethyl-psoralen], which “effectiveness in photoinactivation compared with TMP” value [4] is on record?
Answer: a thousand times more effective than TMP

Question: What about the “light dose response in the inactivation of VSV” value ([4]; 0.7 mW/cm^2) of the same compound?
Answer: equivalent with respect to light dose response

Question: Which results are given for Cc1cc2cc3c(C)cc(=O)oc3c(C)c2o1 [TMP, 4,5',8-tri-methylpsoralen]?
Answer: effectiveness in photoinactivation compared with AMT [2, 16]: more effective; effectiveness in photoinactivation compared with AMT [8, 16]: more effective; solubility range [11]: 0 to 1 µg/mL

Question: With O=c1ccc2cc3ccoc3cc2o1 [psoralen, Psoralen] as the compound, how does the photoinactivation (canine hepatitis virus) read?
Answer: photoinactivated

Question: And the “properties” value (Graffi virus)?
Answer: remained unchanged

Question: What about the HTLV-III titers (HTLV-III) of the same compound?
Answer: 1 x 10^5 FFU/mL

Question: And the “infectious HTLV-III recovered” value (HTLV-III)?
Answer: no infectious HTLV-III was recovered

Question: What about the photoinactivation (pseudorabies) of the same compound?
Answer: photoinactivated

Question: What about the “irradiation resisted by the virus” value (NewCastle disease virus) of the same compound?
Answer: up to 120 minutes

Question: What about the “irradiation resisted by the virus” value (Teschen disease virus) of the same compound?
Answer: up to 120 minutes

Question: What about the RSV inactivated (Rous sarcoma virus) of the same compound?
Answer: approximately 1 x 10^5 FFU/ml

Question: And the photoinactivation (fowl pox virus)?
Answer: photoinactivated

Question: And the “irradiation resisted by the virus” value [12]?
Answer: up to 120 minutes

Question: What about the “effect on leukemic cells” value [1] of the same compound?
Answer: killed the cells
